Source: US11220527B2, “Peptides derived from the propeptide NTSR3 and their use in the treatment of depression” (CENTRE NATIONAL DE LA RECHERCHE SCIENTIFIQUE, priority 2016, dated 2022)
Where no end group is shown, it is not given here.

What was measured:
[1] = Learned helplessness test (LHT); type: in vivo; conditions: mice, bolus of 100 μL of a 10^-6 M solution 30 minutes before conditioning, FIG. 4
Description: Learned resignation or learned helplessness is a model based on the repeated administration of electric shocks to induce a resigned state in the animal.
The apparatus comprises two compartments separated by a sliding door and with a floor consisting of a metal grid through which the electrical pulses are administered. The learned helplessness protocol is divided into two stages, an animal conditioning stage and a test stage.
The conditioning was carried out over a period of four days during which time the mice received 360 non-avoidable electric shocks of 0.3 mA for one hour (the door, separating the two compartments, being closed). The shocks lasted for 2 seconds and an interval of 8 seconds was respected between each shock. This conditioning step leads to a phenomenon of helplessness in animals.
On the day of the test, the mice were placed in the same compartments but with a possibility of escaping the shock. The test counted 30 trials. During the administration of the shock, the door separating the two compartments opened, allowing the animals to flee. When the animal changes compartment the test is finished and the shock stops. […] This test made it possible to record the escape latencies of the animals. The thirty tests were then grouped by 5 and the average escape time was calculated. […]

PSD-95 protein = assay: Synaptogenesis: PSD-95 expression in cortical neurons by Western blot; type: cell-based, mouse C57BI/6J; conditions: 1 μM, 0-36 hours, normalized to ß-actin, FIG. 6
Description: Pregnant female C57BI/6J mice (20-25 g, Janvier Labs, St Berthevin, France) were anesthetized by inhalation of 2% isoflurane mixed with 30% oxygen and 70% nitrous oxide, and then sacrificed. The embryos (E14) were removed and the cerebral cortex was dissected in PBS containing 1% glucose. Neurons were prepared from cerebral cortex by mechanical dissociation, as described in Brewer and Torricelli, 2007 [26]. The dissociated neurons were distributed in poly-L-lysine treated plates and cultured for up to 10 days in neurobasal medium containing 2% B27 (Invitrogen, Fisher Scientific, Illkirch, France) and 50 μg/ml gentamycin (Sigma France), at 37° C. under 5% CO2. […]
Cortical neurons treated with peptides G/A-PE(22-28) and biotinylated G/A-PE(22-28) for different durations (0, 5, 8, 24 and 36 hours) were homogenized in Laemmli buffer and analyzed using 10% SDS-Page gels. […] The ß-actin contents were determined after extraction using a 1/5000 dilution of anti-β-actin antibodies (Santa Cruz mouse monoclonal antibody, dilution 1/5000). […] The proteins were detected with ECL Plus detection reagents (Amersham Biosciences) using the LAS-3000 imaging system (Fujifilm, Düsseldorf, Germany). The relative intensities of each labeled band were analyzed by densitometric scanning using ImageJ software (Wayne Rasband, National Institute of Health, Bethesda, Md., USA). […]

AVSWGLR [G/A-PE(22-28), AVSWGLR]
escape latencies in the learned helplessness test [1]: capable of reducing the escape latencies
PSD-95 synaptic protein expression (synaptogenesis) (PSD-95 protein): increased PSD-95 synaptic protein expression
